Structures can show the parent of a compound that is named as a salt.
What was measured:
HL60 cells = settings: read-out: IC50, growth of HL60 cells; cited from earlier work
pause release = assay: Inhibition of pause release; assay type: cell-based
Source text: It has undergone clinical trials in a number of different cancer types including various solid tumors and leukemias. […] Without wishing to be bound by theory, this may help counteract the effects of Myc overexpression, and this may be the basis for the therapeutic effect of flavopiridol on some tumors.

[1] = system: various tumor cells lines; settings: cited from earlier work
xenograft models = settings: in vivo; cited from earlier work
c-Myc [2] = target: T1, c-Myc (Homo sapiens, UniProt P01106); settings: cited from earlier work
T1 sequence (P01106 whole entry): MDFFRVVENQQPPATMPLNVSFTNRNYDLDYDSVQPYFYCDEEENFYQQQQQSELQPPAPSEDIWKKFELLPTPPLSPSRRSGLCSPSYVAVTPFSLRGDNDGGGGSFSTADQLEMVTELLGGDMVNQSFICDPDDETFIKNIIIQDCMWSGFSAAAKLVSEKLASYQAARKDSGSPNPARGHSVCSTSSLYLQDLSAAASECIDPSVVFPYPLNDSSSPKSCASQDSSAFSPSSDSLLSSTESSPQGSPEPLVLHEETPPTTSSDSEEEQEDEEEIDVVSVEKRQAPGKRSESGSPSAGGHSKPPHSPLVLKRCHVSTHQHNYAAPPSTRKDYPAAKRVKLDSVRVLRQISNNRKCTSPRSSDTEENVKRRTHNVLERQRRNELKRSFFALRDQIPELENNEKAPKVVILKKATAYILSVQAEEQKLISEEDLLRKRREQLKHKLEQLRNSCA

MM.1S cells = assay: JQ1 sensitivity of MM.1S cells by measurement of ATP levels (CellTiterGlo); assay type: cell-based, human
Source text: (§1) Schematic depicting the experimental procedure.

c-MYC [3] = assay: Western blot of c-MYC protein levels after JQ1 or DMSO treatment; assay type: cell-based, human; settings: MM.1S cells, 6 hours of JQ1 treatment
Source text: as §1

P-TEFb = assay: ChIP-Seq of P-TEFb occupancy in MM.1S cells after JQ1 treatment; assay type: cell-based, human
Source text: FIGS. 9(A)-9(C) illustrate that loss of P-TEFb accompanies BRD4 inhibition. (FIG. 9A) P-TEFb generally occupies enhancers bound by Mediator and BRD4 in MM1.S cells. […] (FIG. 9C) P-TEFb is disproportionally lost at super-enhancers.
BRD4 recruits the active form of the positive transcription elongation factor P-TEFb, which stimulates pause release and transcription elongation (Bisgrove et al., 2007; Hargreaves et al., 2009; Jang et al., 2005; Jiang et al., 1998; Wu and Chiang, 2007; Wu et al., 2003; Yang et al., 2005). […] Furthermore, P-TEFb was disproportionately lost at super-enhancers when compared to normal enhancers (FIG. 9C). We conclude that BET bromodomain inhibition of BRD4 leads to loss of P-TEFb at enhancers and transcription start sites, and that the inhibition has more profound effects at super-enhancers than at average enhancers.

RNA Polymerase II = assay: ChIP-seq of RNA Polymerase II after JQ1 treatment (transcription elongation); assay type: cell-based, human; settings: MM.1S cells
Source text: (FIG. 10B) Genes associated with super-enhancers show a dramatic defect in elongation.

c-Myc [4] = target: T1, c-Myc; settings: cited from earlier work; remark: listed apart in the source
c-Myc/Max = c-Myc/Max (Homo sapiens, UniProt P01106); settings: cited from earlier work
Chain of c-Myc/Max (P01106 whole entry): as above

c-Myc [5] = target: T1, c-Myc; settings: at concentrations of 10-40 μM; cited from earlier work
[6] = system: chicken embryo fibroblasts; settings: cited from earlier work

For `CCc1ccc(/C=C2/SC(=S)NC2=O)cc1` [10058-F4], the IC50 (HL60 cells) is listed as 49 µM.
In the case of `CN1CC[C@H](c2c(O)cc(O)c3c(=O)cc(-c4ccccc4Cl)oc23)[C@H](O)C1` [Flavopiridol, (−)-2-(2-Chlorophenyl)-5,7-dihydroxy-8-[(3S,4R)-3-hydroxy-1-methyl-4-piperidinyl]-4H-1-benzopyran-4-one hydrochloride], the pause release (pause release) is listed as “inhibit pause release”, the “antitumor activity against various tumor cells lines” value [1] is listed as “antitumor activity” and the “tumor growth in xenograft models” value (xenograft models) is listed as “inhibit tumor growth”.
For `CNC(=O)c1cc2c(cc1C(=O)NC[C@H](NS(=O)(=O)c1c(Cl)sc(Cl)c1Br)C(=O)OC(C)(C)C)CN(C(=O)CCC1CCN(C(=O)OC(C)(C)C)CC1)C2` [IIA6B17], the “inhibition of c-Myc-dependent transcription in a reporter gene assay” value (c-Myc [2]) is listed as “inhibit”.
With `Cc1sc2c(c1C)C(c1ccc(Cl)cc1)=N[C@@H](CC(=O)OC(C)(C)C)c1nnc(C)n1-2` [JQ1] the “MM1.S cell viability, as measured by ATP levels” value (MM.1S cells; 6 hour treatments, various concentrations of JQ1) was “little effect”, the “antiproliferative effect on MM1.S cells” value (MM.1S cells; later time points) was “dramatic antiproliferative effect” and the MYC protein levels (c-MYC [3]) was “significantly depleted”. For the same compound, the “levels of P-TEFb at sites where there was a reduction in BRD4” value (P-TEFb) was “reduce the levels of P-TEFb” and the “transcriptional elongation (PolII in the gene body and 3' transcription termination regions)” value (RNA Polymerase II) was “global defect in transcriptional elongation”.
For `CN(C)CCCNc1cc(O)c2c(c1O)C(=O)c1ccccc1C2=O` [MYRA-A], the Myc-regulated gene expression (c-Myc [4]) is given as “inhibit” and the apoptosis (c-Myc [4]) is given as “induce apoptosis in a Myc-dependent manner”.
For `COc1ccc(CNC(=O)c2cc3nc(-c4cccs4)cc(C(F)(F)F)n3n2)cc1` [Mycro1], the “specificity for c-Myc-dependent transcription over transcription mediated by AP-1 family proteins” value (c-Myc [2]) is given as “weak-to-moderate specificity” and the “inhibition of c-Myc/Max dimerization” value (c-Myc/Max) is given as “inhibit”.
For `O=C(NCc1cccs1)c1cc2nc(-c3cccs3)cc(C(F)(F)F)n2n1` [Mycro2], the “specificity for c-Myc-dependent transcription over transcription mediated by AP-1 family proteins” value (c-Myc [2]) is listed as “weak-to-moderate specificity” and the “inhibition of c-Myc/Max dimerization” value (c-Myc/Max) is listed as “inhibit”.
In the case of `CCOC(=O)c1cnn(-c2ccccc2)c1NC(=O)c1cc2nc(-c3cccs3)cc(C(F)(F)F)n2n1` [Mycro3], the “inhibition of c-Myc/Max dimerization” value (c-Myc/Max) is listed as “inhibited”, the “selectivity in vitro of inhibition of c-Myc/Max dimerization and DNA binding” value (c-Myc/Max; in vitro) is listed as “very good selectivity” and the “potency and selectivity against c-Myc in cellular assays” value (c-Myc [5]) is listed as “good potency and selectivity”.
For `COc1ccc(CN(C(=O)c2ccccn2)C(C(=O)NC2CCCCC2)c2ccc3cc(OCC(=O)OC(C)(C)C)ccc3c2)cc1` (stereo not shown) [NY2267], the “inhibition of c-Myc-dependent oncogenic transformation of chicken embryo fibroblasts” value ([6]; at 20 μM) is listed as “strongly inhibited”, the “selectivity over transformation mediated by v-Src or v-Jun” value [6] is listed as “showed selectivity” and the “discrimination between transcription mediated by c-Jun and c-Myc” value (c-Myc [2]) is listed as “did not discriminate”.

From patent US10160977B2, “Super-enhancers and methods of use thereof” (Whitehead Institute for Biomedical Research, priority 2012, dated 2018)
